Tests used:
Assay type in all cases: cell-based, HIV-1
[1] = tested on: HIV-IIIb (wildtype); assay: Antiviral assay in MT4 cells, HIV-IIIb wildtype; conditions: Human immunodeficiency virus 1, IIIB, MT4, 120 h, read-out: WT EC50
Outline: (§1)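 Luminescence from CellTiter-Glo after a 5-day culture served as the measure of HIV-1 replication in MT4 cells. Cells were infected beforehand for 3 h with HIV-IIIb (0.004 m.o.i.) and exposed to ten 3-fold compound dilutions. EC50 corresponds to a 50% signal decrease.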

[2] = tested on: HIV-IIIb IN T174I BT; assay: Antiviral assay in MT4 cells, HIV-IIIb IN T174I BT virus (from viral breakthrough); conditions: Human immunodeficiency virus 1, IIIB, MT4, 120 h, read-out: T174I BT EC50, MT4 cells, HIV-IIIb IN T174I BT (viral breakthrough), 5 days, CellTiter-Glo
Outline: as §1

[3] = tested on: HIV-IIIb IN T174I DE; assay: Antiviral assay in MT4 cells, HIV-IIIb IN T174I DE virus (from dose escalation passaging); conditions: Human immunodeficiency virus 1, IIIB, MT4, 120 h, read-out: T174I DE EC50, MT4 cells, HIV-IIIb IN T174I DE (dose escalation), 5 days, CellTiter-Glo
Outline: as §1

SMILES | EC50 [1] [nM] | EC50 [2] [nM] | EC50 [3] [nM]
Cc1cc2nc(-c3ccc4c(c3)c(C3CCN(C(=O)[C@@H]5CCCO5)CC3)nn4C)sc2c(-c2ccc(Cl)cc2)c1[C@H](OC(C)(C)C)C(=O)O [Compound 157, (S)-2-(tert-butoxy)-2-(7-(4-chloro-phenyl)-5-methyl-2-(1-methyl-3-(1-((S)-tetrahydrofuran-2-carbonyl)piperidin-4-yl)-1H-indazol-5-yl)benzo[d]thiazol-6-yl)acetic acid] | 11 | 620 | 789
Cc1cc2nc(-c3ccc4c(c3)c(C3CCN(C(=O)C5(C)CCCO5)CC3)nn4C)sc2c(-c2ccc(Cl)cc2)c1[C@H](OC(C)(C)C)C(=O)O (stereo partly drawn) [Compound 158, (2S)-2-(tert-butoxy)-2-(7-(4-chloro-phenyl)-5-methyl-2-(1-methyl-3-(1-(2-methyltetrahydro-furan-2-carbonyl)piperidin-4-yl)-1H-indazol-5-yl)benzo [d]thiazol-6-yl) acetic acid] | 11 | 1300 | 1670
Cc1cc2nc(-c3ccc4c(c3)c(C3CCN(C(=O)C5CCO5)CC3)nn4C)sc2c(-c2ccc(Cl)cc2)c1[C@H](OC(C)(C)C)C(=O)O (stereo partly drawn) [Compound 159, (2S)-2-(tert-butoxy)-2-(7-(4-chloro-phenyl)-5-methyl-2-(1-methyl-3-(1-(oxetane-2-carbonyl)piperidin-4-yl)-1H-indazol-5-yl)benzo[d]thiazol-6-yl) acetic acid] | 11 | 430 | 583
Cc1cc2nc(-c3ccc4c(c3)c(C3CCN(C(=O)C5(C)COC5)CC3)nn4C)sc2c(-c2ccc(Cl)cc2)c1[C@H](OC(C)(C)C)C(=O)O [Compound 160, (S)-2-(tert-butoxy)-2-(7-(4-chloro-phenyl)-5-methyl-2-(1-methyl-3-(1-(3-methyloxetane-3-carbonyl)piperidin-4-yl)-1H-indazol-5-yl)benzo[d]thiazol-6-yl)acetic acid] | 15 | 375 | 756
Cc1cc2nc(-c3ccc4c(c3)c(C3CCN(C(=O)C5COC5)CC3)nn4C)sc2c(-c2ccc(Cl)cc2)c1[C@H](OC(C)(C)C)C(=O)O [Compound 161, (S)-2-(tert-butoxy)-2-(7-(4-chloro-phenyl)-5-methyl-2-(1-methyl-3-(1-(oxetane-3-carbonyl)piperidin-4-yl)-1H-indazol-5-yl)benzo[d]thiazol-6-yl)acetic acid] | 18 | 316 | 600
COC(=O)N1CC[C@H](N2CCC(c3nn(C)c4ccc(-c5nc6cc(C)c([C@H](OC(C)(C)C)C(=O)O)c(-c7ccc(Cl)cc7)c6s5)cc34)CC2)C1 [Compound 162, (S)-2-(tert-butoxy)-2-(7-(4-chloro-phenyl)-2-(3-(1-((S)-1-(methoxy-carbonyl)pyrrolidin-3-yl)piperidin-4-yl)-1-methyl-1H-indazol-5-yl)-5-methylbenzo[d]thiazol-6-yl) acetic acid] | 5 | 149 | 272
Cc1cc2nc(-c3ccc4c(c3)c(C3CCN([C@@H]5CCN(C)C5)CC3)nn4C)sc2c(-c2ccc(Cl)cc2)c1[C@H](OC(C)(C)C)C(=O)O [Compound 164, (S)-2-(tert-butoxy)-2-(7-(4-chloro-phenyl)-5-methyl-2-(1-methyl-3-(1-((R)-1-methyl-pyrrolidin-3-yl)piperidin-4-yl)-1H-indazol-5-yl)benzo[d]thiazol-6-yl)acetic acid] | 15 | 184 | 183
COC(=O)N1CC[C@@H](N2CCC(c3nn(C)c4ccc(-c5nc6cc(C)c([C@H](OC(C)(C)C)C(=O)O)c(-c7ccc(Cl)cc7)c6s5)cc34)CC2)C1 [Compound 165, (S)-2-(tert-butoxy)-2-(7-(4-chloro-phenyl)-2-(3-(1-((R)-1-(methoxy-carbonyl)pyrrolidin-3-yl)piperidin-4-yl)-1-methyl-1H-indazol-5-yl)-5-methylbenzo[d]thiazol-6-yl) acetic acid] | 5 | 118 | 182
COC(=O)N1CC(N2CCC(c3nn(C)c4ccc(-c5nc6cc(C)c([C@H](OC(C)(C)C)C(=O)O)c(-c7ccc(Cl)cc7)c6s5)nc34)CC2)C1 [Compound 167, (S)-2-(tert-butoxy)-2-(7-(4-chloro-phenyl)-2-(3-(1-(1-(methoxycarbonyl)azetidin-3-yl)piperidin-4-yl)-1-methyl-1H-pyrazolo[4,3-b]pyridin-5-yl)-5-methylbenzo[d]thiazol-6-yl) acetic acid] | 3 | 57 | 138
Cc1cc2nc(-c3ccc4c(n3)c(C3CCN(C5CN(C(=O)OC(C)C)C5)CC3)nn4C)sc2c(-c2ccc(Cl)cc2)c1[C@H](OC(C)(C)C)C(=O)O [Compound 168, (S)-2-(tert-butoxy)-2-(7-(4-chloro-phenyl)-2-(3-(1-(1-(isopropoxy-carbonyl)azetidin-3-yl)piperidin-4-yl)-1-methyl-1H-pyrazolo[4,3-b]pyridin-5-yl)-5-methylbenzo[d]thiazol-6-yl) acetic acid] | 11 | 230 | 456
Cc1cc2nc(-c3ccc4c(n3)c(C3CCN([C@@H]5CCN(C)C5)CC3)nn4C)sc2c(-c2ccc(Cl)cc2)c1[C@H](OC(C)(C)C)C(=O)O [Compound 171, (S)-2-(tert-butoxy)-2-(7-(4-chloro-phenyl)-5-methyl-2-(1-methyl-3-(1-((R)-1-methyl-pyrrolidin-3-yl)piperidin-4-yl)-1H-pyrazolo[4,3-b]pyridin-5-yl)benzo[d]thiazol-6-yl)acetic acid] | 5 | 98 | 239
Cc1cc2nc(-c3ccc4[nH]nc(C5CCN(C6COC6)CC5)c4n3)sc2c(-c2ccc(Cl)cc2)c1[C@H](OC(C)(C)C)C(=O)O [Compound 174, (S)-2-(tert-butoxy)-2-(7-(4-chloro-phenyl)-5-methyl-2-(3-(1-(oxetan-3-yl)piperidin-4-yl)-1H-pyrazolo [4,3-b]pyridin-5-yl)benzo[d]thiazol-6-yl)acetic acid] | 11 | 219 | 587
[2H]C([2H])([2H])n1nc(C2CCN(C3COC3)CC2)c2nc(-c3nc4cc(C)c([C@H](OC(C)(C)C)C(=O)O)c(-c5ccc(Cl)cc5)c4s3)ccc21 [Compound 176, (S)-2-(tert-butoxy)-2-(7-(4-chloro-phenyl)-5-methyl-2-(1-(methyl-d3)-3-(1-(oxetan-3-yl)piperidin-4-yl)-1H-pyrazolo[4,3-b]pyridin-5-yl)benzo[d]thiazol-6-yl)acetic acid] | 3 | 85 | 214
CCn1nc(C2CCN(C3COC3)CC2)c2nc(-c3nc4cc(C)c([C@H](OC(C)(C)C)C(=O)O)c(-c5ccc(Cl)cc5)c4s3)ccc21 [Compound 177, (S)-2-(tert-butoxy)-2-(7-(4-chloro-phenyl)-2-(1-ethyl-3-(1-(oxetan-3-yl)piperidin-4-yl)-1H-pyrazolo[4,3-b]pyridin-5-yl)-5-methylbenzo[d]thiazol-6-yl) acetic acid] | 3 | 47 | 185
Cc1cc2nc(-c3ccc4c(n3)c(C3CCN(C5COC5)CC3)nn4C3CC3)sc2c(-c2ccc(Cl)cc2)c1[C@H](OC(C)(C)C)C(=O)O [Compound 178, (S)-2-(tert-butoxy)-2-(7-(4-chloro-phenyl)-2-(1-cyclo-propyl-3-(1-(oxetan-3-yl)piperidin-4-yl)-1H-pyrazolo[4,3-b]pyridin-5-yl)-5-methylbenzo[d]thiazol-6-yl) acetic acid] | 4 | 121 | 317
CCn1nc(C2CCN(C3CN(C(=O)OC)C3)CC2)c2nc(-c3nc4cc(C)c([C@H](OC(C)(C)C)C(=O)O)c(-c5ccc(Cl)cc5)c4s3)ccc21 [Compound 179, (S)-2-(tert-butoxy)-2-(7-(4-chloro-phenyl)-2-(1-ethyl-3-(1-(1-(methoxy-carbonyl)azetidin-3-yl)piperidin-4-yl)-1H-pyrazolo [4,3-b]pyridin-5-yl)-5-methylbenzo [d]thiazol-6-yl) acetic acid] | 3 | 28 | 108
COC(=O)N1CC(N2CCC(c3nn(C4CC4)c4ccc(-c5nc6cc(C)c([C@H](OC(C)(C)C)C(=O)O)c(-c7ccc(Cl)cc7)c6s5)nc34)CC2)C1 [Compound 180, (S)-2-(tert-butoxy)-2-(7-(4-chloro-phenyl)-2-(1-cyclopropyl-3-(1-(1-(methoxy-carbonyl)azetidin-3-yl)piperidin-4-yl)-1H-pyrazolo [4,3-b]pyridin-5-yl)-5-methylbenzo [d]thiazol-6-yl) acetic acid] | 4 | 64 | 212
CCn1nc(C2CCN(C3CN(C(C)=O)C3)CC2)c2nc(-c3nc4cc(C)c([C@H](OC(C)(C)C)C(=O)O)c(-c5ccc(Cl)cc5)c4s3)ccc21 [Compound 181, (S)-2-(2-(3-(1-(1-acetylazetidin-3-yl)piperidin-4-yl)-1-ethyl-1H-pyrazolo[4,3-b]pyridin-5-yl)-7-(4-chlorophenyl)-5-methylbenzo [d]thiazol-6-yl)-2-(tert-butoxy) acetic acid] | 1 | 12 | 34

Reference: patent US10800772B2 (Gilead Sciences, Inc., priority 2016, dated 2020)
